The NIST ThermoML archive (doi:10.1016/j.jct.2016.02.008)
Numbers after ± are expanded uncertainties.

How the values were obtained:
[1] = Crystal; for Normal melting temperature: DTA; for mass density: 298.15 K, 101.33 kPa, measuring the mass and volume of a pellet
[2] = Molar enthalpy of transition or fusion; settings: Crystal; DSC
[3] = molar heat capacity at constant pressure; settings: 298.15 K; 101.33 kPa; Crystal; Small sample (50 mg) DSC

Row | SMILES | Normal melting temperature [1] [°C] | Molar enthalpy of transition or fusion [2] [kcal/mol] | molar heat capacity at constant pressure [3] [J/K/mol] | mass density [1] [kg/m3]
1 | CC(=O)c1cc2ccccc2o1 [2-acetylbenzofuran] | 66 ± 0.9 | 5.09 ± 0.12 | 192.1 ± 5.3 | –
2 | O=C(O)c1cc2ccccc2s1 [benzo[b]thiophene-2-carboxylic acid] | 244.6 ± 0.6 | 7.5 ± 0.165 | 179 ± 4.6 | 1490 ± 120
3 | O=C(O)c1cc2ccccc2o1 [benzofuran-2-carboxylic acid] | 196.7 ± 0.6 | 6.49 ± 0.155 | 184.8 ± 3.9 | 1340 ± 60
4 | O=C(O)c1cc2ccccc2[nH]1 [indole-2-carboxylic acid] | 210.0 ± 0.8 | 5.49 ± 0.153 | 178.4 ± 5.5 | –
